Consider one compound from patent US10538567B2, “Compounds as peptidic trigonal GLP1/glucagon/GIP receptor agonists” (priority 2016, dated 2020).

pEC50: −log10 of the molar value. Numbered stars: 1 amine (or outer) side, 2 acyl side, 3 side chain; on linkers, the order of the positions; unused ones are H or OH. Square brackets hold non-standard residues; d marks the D form. Side chains are listed from the residue outwards. Peptide text beside a SMILES is read from it. * marks the point of attachment. γGlu = O=C(O)[C@H](CCC(=O)[*:2])N[*:1]; Stearoyl = CCCCCCCCCCCCCCCCCC(=O)*; Aib = CC(C)(N)C(=O)O

The target of one data set is T1, human GLP-1 receptor (Homo sapiens, UniProt P43220).
T1 construct: expressed in transfected cells; host or cells: HEK-293
T1 sequence (P43220 24-463): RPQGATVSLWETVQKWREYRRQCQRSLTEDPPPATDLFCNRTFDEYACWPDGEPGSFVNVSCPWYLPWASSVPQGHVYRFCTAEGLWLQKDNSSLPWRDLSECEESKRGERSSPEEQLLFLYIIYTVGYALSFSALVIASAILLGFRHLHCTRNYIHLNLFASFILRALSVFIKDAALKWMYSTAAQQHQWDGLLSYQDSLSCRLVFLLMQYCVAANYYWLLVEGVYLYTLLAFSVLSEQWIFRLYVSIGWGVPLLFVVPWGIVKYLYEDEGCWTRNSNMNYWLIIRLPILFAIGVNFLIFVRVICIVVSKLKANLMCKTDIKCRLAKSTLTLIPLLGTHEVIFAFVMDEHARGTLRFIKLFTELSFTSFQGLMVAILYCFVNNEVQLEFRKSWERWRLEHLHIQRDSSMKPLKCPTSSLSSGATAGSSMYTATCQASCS
Briefly: cAMP response (HTRF) of HEK-293 cells stably expressing human GLP-1 receptor. Type of data set: cell-based. The following applies: Table 8; read-out: EC50 hGLP-1R. How it is done:
(§1) cAMP content of cells was determined using a kit from Cisbio Corp. (cat. no. 62AM4PEJ) based on HTRF (Homogenous Time Resolved Fluorescence). For preparation, cells were split into T175 culture flasks and grown overnight to near confluency in medium (DMEM/10% FBS). Medium was then removed and cells washed with PBS lacking calcium and magnesium, followed by proteinase treatment with accutase (Sigma-Aldrich cat. no. A6964). Detached cells were washed and resuspended in assay buffer (1×HBSS; 20 mM HEPES, 0.1% BSA, 2 mM IBMX) and cellular density determined. They were then diluted to 400000 cells/ml and 25 μl-aliquots dispensed into the wells of 96-well plates. For measurement, 25 μl of test compound in assay buffer was added to the wells, followed by incubation for 30 minutes at room temperature.
(§2) Potencies of peptidic compounds at the GLP-1, glucagon and GIP receptors were determined by exposing cells expressing human glucagon receptor (hGlucagon R), human GIP receptor (hGIP-R) or human GLP-1 receptor (hGLP-1 R) to the listed compounds at increasing concentrations and measuring the formed cAMP as described in Methods.

The target of another data set is T2, human glucagon receptor (Homo sapiens, UniProt P47871).
T2 construct: expressed in transfected cells; host or cells: HEK-293
T2 sequence (P47871 26-477): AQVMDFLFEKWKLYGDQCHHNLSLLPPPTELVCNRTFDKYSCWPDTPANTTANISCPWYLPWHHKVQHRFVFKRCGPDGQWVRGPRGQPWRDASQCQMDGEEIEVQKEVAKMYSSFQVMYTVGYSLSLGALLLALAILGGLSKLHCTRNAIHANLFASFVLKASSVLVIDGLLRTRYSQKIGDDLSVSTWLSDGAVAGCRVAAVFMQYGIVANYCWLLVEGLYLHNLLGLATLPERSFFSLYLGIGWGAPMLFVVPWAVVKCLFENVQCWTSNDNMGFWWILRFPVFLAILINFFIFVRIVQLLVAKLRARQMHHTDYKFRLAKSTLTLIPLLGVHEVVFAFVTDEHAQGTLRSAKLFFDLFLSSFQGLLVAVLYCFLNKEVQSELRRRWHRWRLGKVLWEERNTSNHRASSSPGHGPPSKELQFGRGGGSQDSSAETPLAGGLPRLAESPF
Briefly: cAMP response (HTRF) of HEK-293 cells stably expressing human glucagon receptor. The format is cell-based. Conditions: Table 8; read-out: EC50 hGlucagon R. The procedure:
as §1, §2

A further data set deals with T3, human GIP receptor (Homo sapiens, UniProt P48546).
T3 construct: expressed in transfected cells; host or cells: HEK-293
T3 sequence (P48546 22-466): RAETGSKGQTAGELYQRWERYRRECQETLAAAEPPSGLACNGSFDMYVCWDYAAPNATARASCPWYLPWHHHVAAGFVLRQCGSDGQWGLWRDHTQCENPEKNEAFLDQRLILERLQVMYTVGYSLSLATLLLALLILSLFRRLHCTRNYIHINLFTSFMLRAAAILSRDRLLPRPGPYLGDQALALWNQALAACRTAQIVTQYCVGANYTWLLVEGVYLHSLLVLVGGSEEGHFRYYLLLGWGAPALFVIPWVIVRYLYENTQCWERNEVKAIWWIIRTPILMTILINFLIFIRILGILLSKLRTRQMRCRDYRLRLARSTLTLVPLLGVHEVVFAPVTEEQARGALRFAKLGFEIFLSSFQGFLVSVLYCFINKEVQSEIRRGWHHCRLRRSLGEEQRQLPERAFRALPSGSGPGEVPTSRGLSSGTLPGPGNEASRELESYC
Briefly: cAMP response (HTRF) of HEK-293 cells stably expressing human GIP receptor. Type of data set: cell-based. The following applies: Table 8; read-out: EC50 hGIP R. The procedure:
Agonism of compounds for the receptors was determined by functional assays measuring cAMP response of HEK-293 cell lines stably expressing human GLP-1, GIP or glucagon receptor.
as §1, with “temperature. After addition of HTRF reagents diluted in lysis buffer (kit components), the plates were incubated for 1 hr, followed by measurement of the fluorescence ratio at 665/616 nm. In vitro potency of agonists was quantified by determining the concentrations that caused 50% activation of maximal response (EC50).” for “temperature.”
as §2

Data set [1] is described as follows: Thioflavin T (ThT) assay for physical stability (fibrillation). The format is physicochemical. The following applies: 3 mg/ml, 100 mM acetate pH 4.5 with m-cresol, 37° C. shaking. An outline of the steps:
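Peptides at 3 mg/ml final with 100 μM ThT final in 100 mM acetate pH 4.5 containing 2.7 mg/mL m-cresol, eight replicates. Stressed at 37° C by repeated cycles of 10 s shaking at 960 rpm and 50 s rest. Fluorescence read every 20 minutes; lag time in hours taken from the sigmoidal kinetic curve.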

As to `CCCCCCCCCCCCCCCCCC(=O)N[C@@H](CCC(=O)NCCCC[C@H](NC(=O)[C@H](CC(C)C)NC(=O)[C@H](CCCCN)NC(=O)[C@H](CO)NC(=O)[C@H](CC(C)C)NC(=O)[C@H](CC(=O)O)NC(=O)[C@H](CO)NC(=O)[C@@H](NC(=O)[C@H](Cc1ccccc1)NC(=O)[C@@H](NC(=O)CNC(=O)[C@H](Cc1c[nH]cn1)NC(=O)C(C)(C)NC(=O)[C@@H](N)Cc1c[nH]cn1)[C@@H](C)O)[C@@H](C)O)C(=O)N[C@@H](CCC(=O)O)C(=O)N[C@@H](CCC(=O)O)C(=O)N[C@@H](CCC(N)=O)C(=O)N[C@@H](CCCNC(=N)N)C(=O)N[C@@H](CCC(N)=O)C(=O)N[C@@H](CCCCN)C(=O)N[C@@H](CCC(=O)O)C(=O)N[C@@H](Cc1ccccc1)C(=O)N[C@H](C(=O)N[C@@H](CCC(=O)O)C(=O)N[C@@H](Cc1c[nH]c2ccccc12)C(=O)N[C@@H](CC(C)C)C(=O)N[C@@H](CCCCN)C(=O)N[C@@H](C)C(=O)NCC(=O)NCC(=O)N1CCC[C@H]1C(=O)N1CCC[C@H]1C(=O)N[C@@H](CO)C(=O)NC(C)(C)C(=O)N[C@@H](CCCCN)C(=O)N1CCC[C@H]1C(=O)N1CCC[C@H]1C(=O)N1CCC[C@H]1C(=O)N[C@@H](CCCCN)C(N)=O)[C@@H](C)CC)C(=O)O` [SEQ ID NO: 21, H-Aib-H-G-T-F-T-S-D-L-S-K-L-K[gGlu-Stea]-E-E-Q-R-Q-K-E-F-I-E-W-L-K-A-G-G-P-P-S-Aib-K-P-P-P-K-NH2] (H-H[Aib]HGTFTSDLSKLK([γGlu-Stearoyl])EEQRQKEFIEWLKAGGPPS[Aib]KPPPK-NH2), the pEC50 is 11.47 at human GLP-1 receptor, 11.72 on human glucagon receptor and 11.59 on human GIP receptor. The “Lag time before increase” value in data set [1] is above 45 h.
